Test results reported in patent US10577315B2, “Compositions and methods for treatment of prostate carcinoma” (Pellficure Pharmaceuticals, Inc., priority 2014, dated 2020).

Tests used:
Assay type in all cases: cell-based
[1] = tested on: PTEN-P2/GFP prostate cancer cells; test: Effect of 1,4-naphthoquinone analogs on PTEN-P2/GFP cell proliferation (WST-1 cell viability, 24 h); conditions: Mus musculus, WST-1, medium with 10% FBS and DHT, read-out: PTEN-P2/GFP cell proliferation, percent of control
Outline: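 PTEN-P2/GFP cells, 8000/well, in medium with 10% FBS and 10^−8M DHT, dosed next day with increasing analog concentrations (constant DMSO) for 24 h at 37 °C, 5% CO2. Viability read by WST-1 after 3 h at 37 °C, OD at 460 nm.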

[2] = tested on: human breast cancer SKBR-3 cells; test: Dose response of 1,4-naphthoquinone analogs in human breast cancer cells SKBR-3 (WST-1, 24 h)
Protocol: (§1) 100 microliters of human breast cancer SKBR-3 cells were plated at a density of 8000 cells/well in 96-well plates (triplicates) in growing medium containing 10% Fetal Bovine Serum, penicillin/streptomycin, and glutamine. The next day, increasing concentrations of a 1,4-naphthoquinone analog (diluted from 10 mM DMSO stock solutions) were added. DMSO used as solvent for all analogs, was kept constant through the 96-well plates. The control consisted of DMSO alone. The cells were subsequently incubated for 24 hours at 37° C. and 5% CO2 in normal cell growth conditions. Cell viability was assessed by adding 9 μL/well of WST-1 reagent (Clontech), which measured mitochondrial activity of live cells. […] The incubation time was 3 hours at 37° C. Optical density of the cell samples was measured at 460 nm, by using plate reader Spectra Max 250 (Molecular Devices). The drug was determined to be cytotoxic when OD values show an inverse correlation with analog concentrations.

[3] = tested on: human fibrosarcoma HT1080 cells; test: Dose response of 1,4-naphthoquinone analogs in human fibrosarcoma cells HT1080 (WST-1, 24 h)
Protocol: as §1, with “fibrosarcoma HT1080” for “breast cancer SKBR-3”

Row | Compound | activity at 2 µM [1] | activity at 3 µM [1] | activity at 4 µM [1] | activity at 5 µM [1] | activity at 10 µM [1] | activity at 15 µM [1] | human SKBR-3 cell proliferation, percent of control ([2]; 1.2 μM) | human SKBR-3 cell proliferation, percent of control ([2]; 2.5 μM) | human SKBR-3 cell proliferation, percent of control ([2]; 5 μM) | human SKBR-3 cell proliferation, percent of control ([2]; 7.5 μM) | human SKBR-3 cell proliferation, percent of control ([2]; 10 μM) | human SKBR-3 cell proliferation, percent of control ([2]; 15 μM) | human SKBR-3 cell proliferation, percent of control ([2]; 20 μM) | proliferation of human fibrosarcoma HT1080 cells, percent of control ([3]; 1.2 μM) | proliferation of human fibrosarcoma HT1080 cells, percent of control ([3]; 2.5 μM) | proliferation of human fibrosarcoma HT1080 cells, percent of control ([3]; 5 μM) | proliferation of human fibrosarcoma HT1080 cells, percent of control ([3]; 7.5 μM) | proliferation of human fibrosarcoma HT1080 cells, percent of control ([3]; 10 μM) | proliferation of human fibrosarcoma HT1080 cells, percent of control ([3]; 15 μM) | proliferation of human fibrosarcoma HT1080 cells, percent of control ([3]; 20 μM) | further results
1 | O=C1C=C(Oc2c(F)c(F)c(F)c(F)c2F)C(=O)c2ccccc21 [Analog F02, 2-(2,3,4,5,6-pentafluorophenoxy)-1,4-naphthoquinone] | 97.9% | 94.8% | 93.3% | 90.3% | 47.6% | 28.7% | 107.66% of control | 116.47% of control | 107.37% of control | 94.47% of control | 75.45% of control | 35.60% of control | 3.02% of control | 84.28% of control | 82.46% of control | 82.96% of control | 76.72% of control | 74.71% of control | 65.17% of control | 63.04% of control | activity at 6 µM [1]: 82.6%; activity at 7 µM [1]: 74.3%; activity at 25 µM [1]: 12.3%
2 | O=C1C=C(Oc2c(F)cc(F)cc2F)C(=O)c2ccccc21 [Analog F04, 2-(2,4,6-trifluorophenoxy)-1,4-naphthoquinone] | – | – | – | 83.3% | 2.09% | 1.47% | 86.74% of control | 83.72% of control | 74.38% of control | 65.90% of control | 7.52% of control | 1.20% of control | 1.90% of control | 87.77% of control | 81.64% of control | 78.43% of control | 84.86% of control | 76.41% of control | 69.17% of control | 63.51% of control | activity at 1.2 µM ([1]; 1.2 μM): 101%; activity at 2.5 µM ([1]; 2.5 μM): 101%; activity at 7.5 µM ([1]; 7.5 μM): 17.6%; activity at 20 µM ([1]; 20 μM): 2.64%
3 | Cc1cc(Cl)ccc1OC1=CC(=O)c2ccccc2C1=O [Analog F07, 2-(4-chloro-2-methylphenoxy)-1,4-naphthoquinone] | 101% | 102% | 101% | 96% | 36.3% | 19.4% | 143.50% of control | 160.12% of control | 131.48% of control | 68.35% of control | 12.78% of control | 2.70% of control | 6.29% of control | 85.35% of control | 89.16% of control | 76.04% of control | 68.43% of control | 69.89% of control | 67.89% of control | 69.50% of control | activity at 6 µM [1]: 88.4%; activity at 7 µM [1]: 81.8%; activity at 25 µM [1]: 12.5%
4 | CC(=O)Nc1ccc(OC2=CC(=O)c3ccccc3C2=O)cc1 [Analog F03, 2-(4-acetamidophenoxy)-1,4-naphthoquinone] | 97.8% | 97.1% | 97.1% | 97.1% | 43% | 20% | 88.89% of control | 87.44% of control | 64.41% of control | 36.88% of control | 7.32% of control | 1.24% of control | 1.57% of control | 81.33% of control | 85.67% of control | 74.59% of control | 72.11% of control | 75.09% of control | 55.37% of control | 38.21% of control | activity at 6 µM [1]: 85%; activity at 7 µM [1]: 76.2%; activity at 25 µM [1]: 9.61%
